Data taken from patent publication US20250180581A1, “COMPOSITIONS AND METHODS FOR CHARACTERIZING AND TREATING PSYCHIATRIC ILLNESS” (Trustees of Tufts College, priority 2023, published 2025).

Experiments:
[1] = test system: mice subjected to chronic unpredictable stress (CUS); experiment: Chronic unpredictable stress (CUS) in mice, behavioral state (learned helplessness, social interaction, anhedonia); type: in vivo; settings: exogenous allopregnanolone treatment after 3 weeks CUS; FIGS. 3B-3D
From the text: In each graph, from left to right, the first bar is control, second bar is mice following CUS, and the third bar is mice following CUS and with exogenous allopregnanolone treatment.
Decreased expression of 5α-reductase 1 and 2 is associated with chronic stress, a major risk factor for depression. […] Reduced endogenous neurosteroids impaired the affective state.

women with PPD = settings: zuranolone treatment; cited from earlier work

Structure (SMILES) | behavioral state of the mice following CUS (learned helplessness, social interaction, anhedonia) [1] | women with PPD exhibiting a rapid antidepressant response (women with PPD) [%]
CC(=O)[C@H]1CC[C@H]2[C@@H]3CC[C@H]4C[C@H](O)CC[C@]4(C)[C@H]3CC[C@]12C [allopregnanolone] | restored the behavioral state | –
C[C@@]1(O)CC[C@H]2[C@H](CC[C@@H]3[C@@H]2CC[C@]2(C)[C@@H](C(=O)Cn4cc(C#N)cn4)CC[C@@H]32)C1 [zuranolone] | – | 57
